Measured values as given in US20070244102A1, “Combination of Dermaciclane and Opoids as Analgesics” (priority 2004, published 2007).
Entries after “also recorded” stand apart in the source; their conditions may differ. Counter-ions that a name gives are not always drawn.

Columns and labels:
mice = assay: hot plate test in mice (influence on morphine analgesia); format: in vivo; conditions: for influence on the analgesic effect of morphine (in words): 30 mg/kg ip. with morphine HCl 1 mg/kg sc.; for analgesia when given alone (in words): alone: morphine HCl 1 mg/kg sc., deramciclane 30 mg/kg ip., buspiron HCl 30 mg/kg ip.
Method: A modified of method of Eddy et al. (Eddy, N. B., Leimback, D., Synthetic Analgesics II. Dithienylbutenyl and Dithienylbutylamines. J. Pharmacol. Exp. Ther. 107: p. 385-393, 1953) was used. Male NMRI nice (20-25 g bodyweight) were dropped on a hot plate (56±0.5° C.) and the latency time elapsed until licking the forepaws was measured. The reaction time was tested twice before treatment. […] Mice were treated either with saline or with morphine HCl 1 mg/kg subcutaneously and at the same time either with vehicle or with deramciclane or buspirone, HCl 30 mg/kg intraperitoneally, respectively. After the treatment (15, 30, 45 and 60 min.) the reaction time was measured again. Animals were regarded as positive if they produced a 2.5-fold reaction time increase at least twice compared to their first control values. Statistical analysis was performed using the chi-square method.

[1] = single oral dose of 3 mg/kg; cited from earlier work
[2] = 10 and 30 mg/kg after oral treatment; cited from earlier work
[3] = in the above mentioned doses (0.7-30 mg/kg); cited from earlier work
[4] = single 0.7 mg/kg oral treatment; cited from earlier work
[5] = 1 and 10 mg/kg after oral administration; cited from earlier work
[6] = Saline sc. + Buspiron HCl 30 mg/kg ip.
[7] = Morphine HCl 1 mg/kg sc. + 0.4% methyl cellulose ip.
[8] = Morphine HCl 1 mg/kg sc. + Saline ip.

Compound: O=C1CC2(CCCC2)CC(=O)N1CCCCN1CCN(c2ncccn2)CC1 [Buspiron HCl, buspirone, HCl]
- influence on the analgesic effect of morphine (in words) (mice): did not influence the analgesic effect of morphine
- Effect % (mice; [6]): 0%
- Positive/treated animals (mice; [6]): 0/10
- analgesia when given alone (in words) (mice; listed as buspiron HCl, HCl): Neither morphine HCl 1 mg/kg sc. nor deramciclane 30 mg/kg ip. nor buspiron HCl 30 mg/kg ip. alone produced analgesia
- analgesia when given alone (in words) (mice; listed as buspiron, HCl): neither deramciclane nor buspiron possess analgesic effect in itself

Compound: CN1CC[C@]23c4c5ccc(O)c4O[C@H]2[C@@H](O)C=C[C@H]3[C@H]1C5.Cl [Morphine HCl, morphine HCl]
- Effect % (mice; [7]): 0%
- Positive/treated animals (mice; [7]): 0/10
- Effect % (mice; [8]): 0%
- Positive/treated animals (mice; [8]): 0/10
- analgesia when given alone (in words) (mice): Neither morphine HCl 1 mg/kg sc. nor deramciclane 30 mg/kg ip. nor buspiron HCl 30 mg/kg ip. alone produced analgesia

Compound: (1R,2S,4R)-(−)-2-[N,N-(dimethylaminoethoxy)]-2-phenyl-1,7,7-trimethylbicyclo[2.2.1]heptane [Deramciclane]
- influence on the analgesic effect of morphine (in words) (mice): potentiation of the analgesic effect of morphine
- Effect % (mice; Saline sc. + Deramciclane 30 mg/kg ip.): 0%
- Positive/treated animals (mice; Saline sc. + Deramciclane 30 mg/kg ip., positive = 2.5-fold reaction time increase at least twice, 15-60 min): 0/10
- analgesia when given alone (in words) (mice): Neither morphine HCl 1 mg/kg sc. nor deramciclane 30 mg/kg ip. nor buspiron HCl 30 mg/kg ip. alone produced analgesia; also recorded: neither deramciclane nor buspiron possess analgesic effect in itself
- activity in light-dark model [1]: active
- activity in marble burying model [2]: active
- analgesic activity [3]: did not possess analgesic activity
- time spent with social interactions [4]: increased the time spent with social interactions
- activity in Vogel punished drinking test [5]: active
